Reference: patent publication US11571396B2, “Ketamine for treatment of ADNP syndrome and sensory processing deficits” (priority 2019, dated 2023)

Experiments:
[1] = system: ADNP gene expression; details: cited from earlier work; for ADNP gene expression increase: somatosensory cortex of post-natal day 7 rats, sedative dose
[2] = system: caspase-3 activation in the hippocampus and somatosensory cortex; experiment: Ketamine-induced neuronal cell death / injury, low-dose ketamine pre-treatment; format: in vivo, rats; details: for high dose ketamine induced injury: low dose ketamine 5 mg/kg, NAP administration
Source text: ADNP induction may be partially responsible for the efficacy of a low-dose ketamine pre-treatment in preventing ketamine-induced neuronal cell death. […] It is therefore theorized that low-dose ketamine prevents high-dose ketamine injury at least in part by increasing expression of ADNP.

[3] = system: Neurons; experiment: Neurons treated with low concentration ketamine: ADNP levels and growth cones; format: cell-based
Source text: We believe that low-dose ketamine, by inducing ADNP, does more than could be with NAP alone.

[4] = system: growth cones; details: cited from earlier work

Row | Compound | ADNP gene expression increase [1] | apoptosis ([2]; high-dose ketamine, rats) | expression of ADNP ([2]; high-dose ketamine, rats) | high dose ketamine induced injury [2] | ADNP levels ([2]; low-dose ketamine) | caspase-3 activation ([2]; low-dose ketamine, hippocampus and somatosensory cortex) | gene expression of ADNP ([1]; anesthetic doses) | ADNP protein levels ([1]; low doses, including in the somatosensory cortex) | ADNP expression ([1]; low doses) | negative effects of decreased growth cones ([3]; 50 μM) | ADNP levels ([3]; 50 μM, compared with higher ketamine dosing) | location of primary increase in ADNP ([3]; following ketamine treatment) | total cellular ADNP levels ([3]; low concentration exposure, 50 or 100 μM) | ADNP in neurites ([3]; low concentration of ketamine) | growth cones ([3]; low concentration of ketamine) | invasion of dynamic microtubules into growth cones [4]
1 | C[C@]12N[C@H](Cc3ccccc31)c1ccccc12 [MK801] | 1.5 fold |  |  |  |  |  |  |  |  |  |  |  |  |  |  | 
2 | CNC1(c2ccccc2Cl)CCCCC1=O (stereo not drawn) [ketamine] | 1.5 fold | induce apoptosis | induce | blocks high dose ketamine induced injury | increases ADNP levels | prevents caspase-3 activation | induce gene expression of ADNP | increase ADNP protein levels | induce ADNP expression | not observed | increased at a rate equivalent to higher ketamine dosing | the primary increase in ADNP occurred in the nucleus | notably increased | significant increase | stably expanded growth cones | 
3 | NAPVSIPQ |  |  |  | blocks high dose ketamine induced injury |  |  |  |  |  |  |  |  |  |  |  | enhance the invasion of dynamic microtubules into growth cones
